The results in this text go back to US20100041972A1, “APPARATUS AND METHODS” (priority 2006, published 2010).

The test system of one assay is rat dorsal raphe. In words: MEA recording of neuronal firing in rat dorsal raphe slice. The class given is cell-based. To be noted: channels 34, 43, 48 and 57; heterogeneity noted.
The test system of assay [1] is olfactory bulb mitral cells. In words: Acute in vivo MEA recording of odour response in olfactory bulb. More on the design: species or system male Wistar rats. To be noted: odour at 5.42×10^−6 M in breathing air, urethane anaesthesia. The text has this: Multi-electrode array recordings from olfactory bulb mitral cells (5×5 array). 1. Spontaneous population burst. 2. Control, no odour. 3. Arnyl acetate. 4. N-butanol. 5. Cineole. 6. Pinene. 7. DL-Camphor. 8. Linalool (max response). 9. Linalool “off response”. […] The results are shown as peak odour response neuronal activity maps in olfactory bulb. These records were from male Wistar rats (400 g) anaesthetized with urethane and secured in a stereotaxic unit). The NeuroZonds MEAs of the invention penetrated the left olfactory bulbs horizontally (after left enucleation). The odours were presented in the animals breathing air under the control of the normal breathing cycle (detected by thermistor probe in mask), diluted from stock in pure nitrogen. The concentrations of odourants were determined according to the relative saturation vapour pressures of the odourants at particular temperatures via a custom-built ‘olfactometer’.

Protocol for rat dorsal raphe: Wistar rats or mice obtained from Charles River were sacrificed by cervical dislocation. The brain was rapidly removed and a block of tissue containing the relevant area was prepared. Brain tissue was glued onto a glass slide using cyanoacryalate glue (Permabond C2). The block was supported by a similar sized block of agar (3% in NaCl, 126 mM) glued immediately behind the brain block. Coronal slices (300 μm thick) of the relevant brain slice were cut from the brain using a Vibratome™ (Oxford Instruments, supplied by Intracel, Unit 4, Station Road, Shepreth, Royston. Herts. UK). The slices were transferred to artificial cerebrospinal fluid (ACSF) which contained (in mM): NaCl 126, KCl 5, NaH2PO4 1.24, CaCl2 2.4, MgCl2 1.3, NaHCO3 26, glucose 10, at pH 7.4, continuously bubbled with ‘carbogen’ (95% O2/5% CO2) and maintained at room temperature. […]
Extracelular action potentials were recorded from either isolated neurones, or several neurones per electrode. […]
All spike waveforms or LFP ‘events’ that crossed a pre-set voltage threshold (−12 and −8 pV respectively) were stored as both ‘time-stamps’ (i.e. ‘time of occurrence’), and as ‘spike cut-outs’ (i.e. digitised waveform prior to, and after threshold crossing). All experimental data were recorded directly on to hard disk, and backed up onto various means of data archiving. […]

In the case of `O=C1c2ccccc2C(Cc2ccncc2)(Cc2ccncc2)c2ccccc21` [XE-991], the “neuronal firing, effect of XE-991 after retigabine” value with rat dorsal raphe was “recovery of retigabine inhibition”.
pinene: the “spatiotemporal dynamics of odour response” value in assay [1] is “marked “off response””.
